Results taken from US6355799B1, “Substituted benzene compounds, process for their preparation, and herbicidal and defoliant compositions containing them” (ISK Americas Incorporated, priority 1997, dated 2002).

Legend:
Format in all cases: in vivo
[1] = system: sicklepod (Cassia obtusifolia, CASOB); test: Post-emerge test, greenhouse herbicide activity screening; conditions: post-emerge, 14 days after application, rating scale 0-100
Method in brief: (§1)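 Compounds in acetone were track-sprayed at 15-1000 g ai/ha (187 l/ha) on sandy loam pots: pre-emerge one day after seeding, post-emerge at 2-3 leaf stage with 0.25% v/v non-ionic surfactant. Phytotoxicity was rated 14 days later on a 0 (no damage) to 100 (complete death) scale.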

[2] = system: ivyleaf morningglory (Ipomoea hederacea, IPOHE); test: as above; conditions: post-emerge, 14 days after application, rating scale 0-100
Method in brief: as §1

[3] = system: redroot pigweed (Amaranthus retroflexus, AMARE); test: as above; conditions: post-emerge, 14 days after application
Method in brief: as §1

[4] = system: barnyardgrass (Echinochloa crus-galli, ECHCG); test: as above; conditions: post-emerge, 14 days after application, rating scale 0-100
Method in brief: as §1

[5] = system: johnsongrass (Sorghum halepense, SORHA); test: as above; conditions: post-emerge, 14 days after application, rating scale 0-100
Method in brief: as §1

[6] = system: lambsquarters (Chenopodium album, CHEAL); test: as above; conditions: post-emerge, 14 days after application, rating scale 0-100
Method in brief: as §1

[7] = system: large crabgrass (Digitaria sanguinalis, DIGSA); test: as above; conditions: post-emerge, 14 days after application, rating scale 0-100
Method in brief: as §1

[8] = system: green foxtail (Setaria viridis, SETVI); test: as above; conditions: post-emerge, 14 days after application, rating scale 0-100
Method in brief: as §1

[9] = system: velvetleaf (Abutilon theophrasti, ABUTH); test: as above; conditions: post-emerge, 14 days after application, rating scale 0-100
Method in brief: as §1

[10] = system: field corn (Zea mays L., var. Dekalb 535, CORN); test: Post-emerge test, crop safety; conditions: post-emerge, 14 days after application, rating scale 0-100
Method in brief: (§2)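 Plants grown in 10 cm pots of sandy loam mix received acetone-dissolved compounds through a moving flat-fan nozzle. Doses ranged from 15 to 1000 g ai/ha. Pre-emerge pots were seeded one day earlier, post-emerge pots 8–21 days earlier. Fourteen days on, each pot was graded 0–100 for damage.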

[11] = system: upland rice (Oryza sp., var. Tebonnet, RICE); test: Post-emerge test, crop safety; conditions: post-emerge, 14 days after application, rating scale 0-100
Method in brief: as §2

[12] = system: field corn (Zea mays L., var. Dekalb 535, CORN); test: Pre-emerge test, crop safety; conditions: pre-emerge, 14 days after application, rating scale 0-100
Method in brief: (§3)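 Applied at 15–1000 g ai/ha from acetone in 187 l/ha spray volume. Post-emergence applications included 0.25% v/v non-ionic surfactant and reached plants sown 8–21 days before. Pre-emergence applications were incorporated by surface watering. Efficacy or crop damage was rated on a 0–100 scale after 14 days.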

[13] = system: upland rice (Oryza sp., var. Tebonnet, RICE); test: Pre-emerge test, crop safety; conditions: pre-emerge, 14 days after application, rating scale 0-100
Method in brief: as §3

[14] = system: redroot pigweed (Amaranthus retroflexus, AMARE); test: Pre-emerge test, greenhouse herbicide activity screening; conditions: pre-emerge, 14 days after application, rating scale 0-100
Method in brief: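 Compounds in acetone were track-sprayed at 187 l/ha, 15–1000 g ai/ha, onto sandy loam pots. Pre-emerge seeds were sown one day before spraying, with surface watering afterwards. Post-emerge plants were at the 2–3 leaf stage and sprayed with 0.25% v/v non-ionic surfactant. Injury was rated 0–100 at 14 days.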

[15] = system: sicklepod (Cassia obtusifolia, CASOB); test: as above; conditions: pre-emerge, 14 days after application, rating scale 0-100
Method in brief: (§4)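 Rating: 0–100 visual injury, 14 DAA. Application: acetone, 187 l/ha, 15–1000 g ai/ha, flat-fan track sprayer with nozzle 40–45 cm above soil or canopy. Post-emerge runs used 0.25% v/v surfactant on 2–3 leaf plants.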

[16] = system: ivyleaf morningglory (Ipomoea hederacea, IPOHE); test: as above; conditions: pre-emerge, 14 days after application, rating scale 0-100
Method in brief: as §4

[17] = system: barnyardgrass (Echinochloa crus-galli, ECHCG); test: as above; conditions: pre-emerge, 14 days after application, rating scale 0-100
Method in brief: as §4

[18] = system: johnsongrass (Sorghum halepense, SORHA); test: as above; conditions: pre-emerge, 14 days after application, rating scale 0-100
Method in brief: as §4

[19] = system: common ragweed (Ambrosia artemisizfolia L., AMBEL); test: as above; conditions: pre-emerge, 14 days after application, rating scale 0-100
Method in brief: as §4

[20] = system: lambsquarters (Chenopodium album, CHEAL); test: as above; conditions: pre-emerge, 14 days after application, rating scale 0-100
Method in brief: as §4

[21] = system: large crabgrass (Digitaria sanguinalis, DIGSA); test: as above; conditions: pre-emerge, 14 days after application, rating scale 0-100
Method in brief: as §4

[22] = system: green foxtail (Setaria viridis, SETVI); test: as above; conditions: pre-emerge, 14 days after application, rating scale 0-100
Method in brief: as §4

[23] = system: velvetleaf (Abutilon theophrasti, ABUTH); test: as above; conditions: pre-emerge, 14 days after application, rating scale 0-100
Method in brief: as §4

With `CCCOC(=O)C(Cl)Cc1c(OCC)c(Cl)cc(F)c1-n1c(=O)cc(C(F)(F)F)n(C)c1=O` (stereo not shown) [14-66] as the compound, how does the “Post-emerge Herbicidal Activity CASOB (phytotoxicity rating)” value ([1]; 63 g ai/ha) read?
The value was 80.

And the “Post-emerge Herbicidal Activity CASOB (phytotoxicity rating)” value ([1]; 250 g ai/ha)?
Its value is 90.

And the “Post-emerge Herbicidal Activity IPOHE (phytotoxicity rating)” value ([2]; 63 g ai/ha)?
The value was 70.

What about the “Post-emerge Herbicidal Activity IPOHE (phytotoxicity rating)” value ([2]; 250 g ai/ha) of the same compound?
Its value is 90.

What about the “Post-emerge Herbicidal Activity AMARE (phytotoxicity rating)” value ([3]; 63 g ai/ha, rating scale 0-100 (0 no damage, 100 complete death)) of the same compound?
Its value is 95.

And the “Post-emerge Herbicidal Activity AMARE (phytotoxicity rating)” value ([3]; 250 g ai/ha, rating scale 0-100)?
The value was 100.

What about the “Post-emerge Herbicidal Activity ECHCG (phytotoxicity rating)” value ([4]; 63 g ai/ha) of the same compound?
The value was 100.

And the “Post-emerge Herbicidal Activity ECHCG (phytotoxicity rating)” value ([4]; 250 g ai/ha)?
The value was 100.

And the “Post-emerge Herbicidal Activity SORHA (phytotoxicity rating)” value ([5]; 63 g ai/ha)?
The value was 60.

And the “Post-emerge Herbicidal Activity SORHA (phytotoxicity rating)” value ([5]; 250 g ai/ha)?
Its value is 80.

What about the “Post-emerge Herbicidal Activity CHEAL (phytotoxicity rating)” value ([6]; 63 g ai/ha) of the same compound?
Its value is 80.

What about the “Post-emerge Herbicidal Activity CHEAL (phytotoxicity rating)” value ([6]; 250 g ai/ha) of the same compound?
The value was 99.

And the “Post-emerge Herbicidal Activity DIGSA (phytotoxicity rating)” value ([7]; 63 g ai/ha)?
The value was 100.

What about the “Post-emerge Herbicidal Activity DIGSA (phytotoxicity rating)” value ([7]; 250 g ai/ha) of the same compound?
Its value is 100.

What about the “Post-emerge Herbicidal Activity SETVI (phytotoxicity rating)” value ([8]; 63 g ai/ha) of the same compound?
Its value is 95.

And the “Post-emerge Herbicidal Activity SETVI (phytotoxicity rating)” value ([8]; 250 g ai/ha)?
The value was 100.

What about the “Post-emerge Herbicidal Activity ABUTH (phytotoxicity rating)” value ([9]; 63 g ai/ha) of the same compound?
Its value is 100.

What about the “Post-emerge Herbicidal Activity ABUTH (phytotoxicity rating)” value ([9]; 250 g ai/ha) of the same compound?
The value was 100.

And the “Post-emerge Herbicidal Activity CORN (crop damage rating)” value ([10]; 63 g ai/ha)?
Its value is 90.

What about the “Post-emerge Herbicidal Activity CORN (crop damage rating)” value ([10]; 250 g ai/ha) of the same compound?
The value was 100.

What about the “Post-emerge Herbicidal Activity RICE (crop damage rating)” value ([11]; 63 g ai/ha) of the same compound?
The value was 0.

And the “Post-emerge Herbicidal Activity RICE (crop damage rating)” value ([11]; 250 g ai/ha)?
Its value is 10.

And the “phytotoxicity rating CORN” value ([12]; 63 g ai/ha)?
The value was 0.

What about the “phytotoxicity rating CORN” value ([12]; 250 g ai/ha) of the same compound?
Its value is 0.

And the “phytotoxicity rating RICE” value ([13]; 63 g ai/ha)?
The value was 0.

What about the “phytotoxicity rating RICE” value ([13]; 250 g ai/ha) of the same compound?
Its value is 20.

What about the “phytotoxicity rating AMARE” value ([14]; 63 g ai/ha) of the same compound?
Its value is 100.

And the “phytotoxicity rating AMARE” value ([14]; 250 g ai/ha)?
The value was 100.

What about the “phytotoxicity rating CASOB” value ([15]; 63 g ai/ha) of the same compound?
The value was 0.

What about the “phytotoxicity rating CASOB” value ([15]; 250 g ai/ha) of the same compound?
The value was 0.

What about the “phytotoxicity rating IPOHE” value ([16]; 63 g ai/ha) of the same compound?
Its value is 0.

And the “phytotoxicity rating IPOHE” value ([16]; 250 g ai/ha)?
Its value is 60.

What about the “phytotoxicity rating ECHCG” value ([17]; 63 g ai/ha) of the same compound?
Its value is 50.

What about the “phytotoxicity rating ECHCG” value ([17]; 250 g ai/ha) of the same compound?
The value was 100.

And the “phytotoxicity rating SORHA” value ([18]; 63 g ai/ha)?
Its value is 0.

What about the “phytotoxicity rating SORHA” value ([18]; 250 g ai/ha) of the same compound?
The value was 30.

What about the “phytotoxicity rating AMBEL” value ([19]; 63 g ai/ha) of the same compound?
Its value is 0.

What about the “phytotoxicity rating AMBEL” value ([19]; 250 g ai/ha) of the same compound?
Its value is 0.

And the “phytotoxicity rating CHEAL” value ([20]; 63 g ai/ha)?
Its value is 90.

And the “phytotoxicity rating CHEAL” value ([20]; 250 g ai/ha)?
Its value is 100.

And the “phytotoxicity rating DIGSA” value ([21]; 63 g ai/ha)?
The value was 90.

And the “phytotoxicity rating DIGSA” value ([21]; 250 g ai/ha)?
The value was 100.

What about the “phytotoxicity rating SETVI” value ([22]; 63 g ai/ha) of the same compound?
The value was 20.

And the “phytotoxicity rating SETVI” value ([22]; 250 g ai/ha)?
Its value is 100.

What about the “phytotoxicity rating ABUTH” value ([23]; 63 g ai/ha) of the same compound?
The value was 90.

What about the “phytotoxicity rating ABUTH” value ([23]; 250 g ai/ha) of the same compound?
Its value is 100.
